Earlier results, collected in paper PMC10644327, “A randomized, double‐blind phase 1b study evaluating the safety, tolerability, pharmacokinetics and pharmacodynamics of the NLRP3 inhibitor selnoflast in patients with moderate to severe active ulcerative colitis” (Clinical and Translational Medicine, 2023).

Set-up: method as in earlier work
Conditions: added to standard‐of‐care therapy, patients with acute severe UC; cited from earlier work

anakinra
Clinical outcome: did not improve the clinical outcome
